Laboratory results from ChEMBL document CHEMBL3046442, “Synthesis and Acaricidal Activity of Bicyclic Pyrazole-3-carboxamide Derivatives” (1992).
In brackets after ≈: the same amount, converted by molar mass.

Tests used:
Assay type in all cases: functional
Tetranychus urticae [1] = test: Acaricidal activity against Tetranychus urticae (two-spotted spider mite) infested kidney bean leaf assessed as mortality at 200 ppm after 5 days; conditions: 120 h
Tetranychus urticae [2] = test: Acaricidal activity against Tetranychus urticae (two-spotted spider mite) infested kidney bean leaf assessed as mortality at 12.5 ppm after 5 days; conditions: 120 h
Tetranychus urticae [3] = test: Acaricidal activity against Tetranychus urticae (two-spotted spider mite) infested kidney bean leaf assessed as mortality at 50 ppm after 5 days; conditions: 120 h
Tetranychus urticae [4] = test: Acaricidal activity against Tetranychus urticae (two-spotted spider mite) infested kidney bean leaf assessed as mortality at 3.1 ppm after 5 days; conditions: 120 h
Panonychus citri [5] = test: Adulticidal activity against adult Panonychus citri infested mandarian orange after 2 days; conditions: 48 h
Panonychus citri [6] = test: Ovicidal activity against Panonychus citri eggs laid on compound-treated mandarian orange measured after 7 days; conditions: 168 h
Tetranychus urticae [7] = test: Ovicidal activity against Tetranychus urticae (two-spotted spider mite) eggs laid on compound-treated kidney bean leaf disk measured after 7 days; conditions: foliar, 168 h
Tetranychus urticae [8] = test: Adulticidal activity against adult Tetranychus urticae (two-spotted spider mite) infested kidney bean leaf disk after 2 days; conditions: foliar, 48 h

## Cn1nc2c(c1C(=O)NCc1ccc(C(C)(C)C)cc1)CCCC2
Tetranychus urticae [1]
  mortality at 200 ppm: 2%
Tetranychus urticae [2]
  mortality at 12.5 ppm: 0%
Tetranychus urticae [3]
  mortality at 50 ppm: 1%
Tetranychus urticae [4]
  mortality at 3.1 ppm: 0%

## CC1CCCc2c1nn(C)c2C(=O)NCc1ccc(C(C)(C)C)cc1 (stereo unspecified)
Tetranychus urticae [1]
  mortality at 200 ppm: 0%
Tetranychus urticae [2]
  mortality at 12.5 ppm: 0%
Tetranychus urticae [3]
  mortality at 50 ppm: 0%
Tetranychus urticae [4]
  mortality at 3.1 ppm: 0%

## CC1CC(C)c2c1nn(C)c2C(=O)NCc1ccc(C(C)(C)C)cc1 (stereo unspecified)
Tetranychus urticae [1]
  mortality at 200 ppm: 1%
Tetranychus urticae [2]
  mortality at 12.5 ppm: 0%
Tetranychus urticae [3]
  mortality at 50 ppm: 0%
Tetranychus urticae [4]
  mortality at 3.1 ppm: 0%

## CCC1CCc2c1nn(C)c2C(=O)NCc1ccc(C(C)(C)C)cc1 (stereo unspecified)
Tetranychus urticae [1]
  mortality at 200 ppm: 0%
Tetranychus urticae [2]
  mortality at 12.5 ppm: 0%
Tetranychus urticae [3]
  mortality at 50 ppm: 0%
Tetranychus urticae [4]
  mortality at 3.1 ppm: 0%

## Cn1nc2c(c1C(=O)NCc1ccc([Si](C)(C)C)cc1)CCC2
Tetranychus urticae [1]
  mortality at 200 ppm: 3%
Tetranychus urticae [2]
  mortality at 12.5 ppm: 3%
Tetranychus urticae [3]
  mortality at 50 ppm: 3%
Tetranychus urticae [4]
  mortality at 3.1 ppm: 1%

## CC1CCc2c1nn(C)c2C(=O)NCc1ccc(C(C)(C)C)cc1 (stereo unspecified)
Panonychus citri [5]
  LC50: 0.42 µg/mL (≈ 1.29 µM)
Tetranychus urticae [1]
  mortality at 200 ppm: 3%
Panonychus citri [6]
  LC50: 6.3 µg/mL (≈ 19.4 µM)
Tetranychus urticae [2]
  mortality at 12.5 ppm: 3%
Tetranychus urticae [7]
  LC50: 1.7 µg/mL (≈ 5.22 µM)
Tetranychus urticae [3]
  mortality at 50 ppm: 3%
Tetranychus urticae [4]
  mortality at 3.1 ppm: 3%
Tetranychus urticae [8]
  LC50: 2.1 µg/mL (≈ 6.45 µM)

## Cn1nc2c(c1C(=O)NCc1ccc(CC(C)(C)C)cc1)CCC2
Tetranychus urticae [1]
  mortality at 200 ppm: 3%
Tetranychus urticae [2]
  mortality at 12.5 ppm: 0%
Tetranychus urticae [3]
  mortality at 50 ppm: 1%
Tetranychus urticae [4]
  mortality at 3.1 ppm: 0%

## CCC(C)c1ccc(CNC(=O)c2c3c(nn2C)CCC3)cc1 (stereo unspecified)
Tetranychus urticae [1]
  mortality at 200 ppm: 3%
Tetranychus urticae [2]
  mortality at 12.5 ppm: 1%
Tetranychus urticae [3]
  mortality at 50 ppm: 3%
Tetranychus urticae [4]
  mortality at 3.1 ppm: 0%

## CC(C)Cc1ccc(CNC(=O)c2c3c(nn2C)CCC3)cc1
Tetranychus urticae [1]
  mortality at 200 ppm: 1%
Tetranychus urticae [2]
  mortality at 12.5 ppm: 0%
Tetranychus urticae [3]
  mortality at 50 ppm: 0%
Tetranychus urticae [4]
  mortality at 3.1 ppm: 0%

## CCCCc1ccc(CNC(=O)c2c3c(nn2C)CCC3)cc1
Tetranychus urticae [1]
  mortality at 200 ppm: 2%
Tetranychus urticae [2]
  mortality at 12.5 ppm: 0%
Tetranychus urticae [3]
  mortality at 50 ppm: 0%
Tetranychus urticae [4]
  mortality at 3.1 ppm: 0%

## CC(C)c1ccc(CNC(=O)c2c3c(nn2C)CCC3)cc1
Tetranychus urticae [1]
  mortality at 200 ppm: 3%
Tetranychus urticae [2]
  mortality at 12.5 ppm: 1%
Tetranychus urticae [3]
  mortality at 50 ppm: 2%
Tetranychus urticae [4]
  mortality at 3.1 ppm: 0%

## Cc1ccc(CNC(=O)c2c3c(nn2C)CCC3)cc1
Tetranychus urticae [1]
  mortality at 200 ppm: 0%
Tetranychus urticae [2]
  mortality at 12.5 ppm: 0%
Tetranychus urticae [3]
  mortality at 50 ppm: 0%
Tetranychus urticae [4]
  mortality at 3.1 ppm: 0%

## Cn1nc2c(c1C(=O)NCc1ccccc1)CCC2
Tetranychus urticae [1]
  mortality at 200 ppm: 0%
Tetranychus urticae [2]
  mortality at 12.5 ppm: 0%
Tetranychus urticae [3]
  mortality at 50 ppm: 0%
Tetranychus urticae [4]
  mortality at 3.1 ppm: 0%

## Cn1nc2c(c1C(=O)SCc1ccc(C(C)(C)C)cc1)CCC2
Tetranychus urticae [1]
  mortality at 200 ppm: 0%
Tetranychus urticae [3]
  mortality at 50 ppm: 0%

## Cn1nc2c(c1C(=O)OCc1ccc(C(C)(C)C)cc1)CCC2
Tetranychus urticae [1]
  mortality at 200 ppm: 1%
Tetranychus urticae [3]
  mortality at 50 ppm: 0%

## Cn1nc2c(c1C(=S)NCc1ccc(C(C)(C)C)cc1)CCC2
Tetranychus urticae [1]
  mortality at 200 ppm: 0%
Tetranychus urticae [3]
  mortality at 50 ppm: 0%

## CN(Cc1ccc(C(C)(C)C)cc1)C(=O)c1c2c(nn1C)CCC2
Tetranychus urticae [1]
  mortality at 200 ppm: 0%
Tetranychus urticae [3]
  mortality at 50 ppm: 0%

## Cn1nc2c(c1C(=O)NCCc1ccc(C(C)(C)C)cc1)CCC2
Tetranychus urticae [1]
  mortality at 200 ppm: 0%
Tetranychus urticae [3]
  mortality at 50 ppm: 0%

## CC(C)(C)c1ccc(CNC(=O)c2c3c(nn2-c2ccccc2)CCC3)cc1
Tetranychus urticae [1]
  mortality at 200 ppm: 0%
Tetranychus urticae [3]
  mortality at 50 ppm: 0%

## CC(C)(C)c1ccc(CNC(=O)c2c3c(nn2C(C)(C)C)CCC3)cc1
Tetranychus urticae [1]
  mortality at 200 ppm: 0%
Tetranychus urticae [3]
  mortality at 50 ppm: 0%

## CCCCn1nc2c(c1C(=O)NCc1ccc(C(C)(C)C)cc1)CCC2
Tetranychus urticae [1]
  mortality at 200 ppm: 0%
Tetranychus urticae [3]
  mortality at 50 ppm: 0%

## CC(C)n1nc2c(c1C(=O)NCc1ccc(C(C)(C)C)cc1)CCC2
Tetranychus urticae [1]
  mortality at 200 ppm: 0%
Tetranychus urticae [3]
  mortality at 50 ppm: 0%

## CCn1nc2c(c1C(=O)NCc1ccc(C(C)(C)C)cc1)CCC2
Tetranychus urticae [1]
  mortality at 200 ppm: 0%
Tetranychus urticae [3]
  mortality at 50 ppm: 0%

## Cn1nc2c(c1C(=O)NCc1ccc(C(C)(C)C)cc1)CCC2
Tetranychus urticae [1]
  mortality at 200 ppm: 3%
Tetranychus urticae [2]
  mortality at 12.5 ppm: 3%
Tetranychus urticae [3]
  mortality at 50 ppm: 3%
Tetranychus urticae [4]
  mortality at 3.1 ppm: 2%

## CC(C)(C)c1ccc(CNC(=O)c2[nH]nc3c2CCC3)cc1
Tetranychus urticae [1]
  mortality at 200 ppm: 0%
Tetranychus urticae [3]
  mortality at 50 ppm: 0%

## CCc1nn(C)c(C(=O)NCc2ccc(C(C)(C)C)cc2)c1Cl [TEBUFENPYRAD]
Panonychus citri [5]
  LC50: 0.5 µg/mL (≈ 1.5 µM)
Panonychus citri [6]
  LC50: 3.9 µg/mL (≈ 11.7 µM)
Tetranychus urticae [7]
  LC50: 0.96 µg/mL (≈ 2.88 µM)
Tetranychus urticae [8]
  LC50: 3.7 µg/mL (≈ 11.1 µM)
